Results on seven compounds are retold here after article PMC3944389, “Differential Neuroprotective Effects of 5′-Deoxy-5′-Methylthioadenosine” (PLoS ONE, 2014).

For data set [1], the system named is rat mixed cultures of neurons and astrocytes. Description: Oxygen-glucose deprivation (OGD) with iodoacetate, LDH release. The format is cell-based. The conditions noted are these: IAA 20 and 50 µM; MTA 10 µM or 100 µM, APV 100 µM. The method, then: (§1) Finally, to prepare neuron-astrocyte co-cultures, neurons were resuspended in B27 Neurobasal medium plus 10% of foetal bovine serum (FBS) and then seeded onto a monolayer of astrocytes in 24-well plates at a density of 1–2×10^5 cells per well, the astrocytes having been prepared beforehand, as described elsewhere. One day later, the medium was replaced with B27-Neurobasal plus 10% FBS medium, and the cells were maintained at 37°C in 5% CO2. The cultures were used 8–9 days after plating. Neurons and astrocytes were identified with antibodies against microtubule-associated protein-2 and GFAP, respectively.
Ischemic damage was induced by incubating cell cultures for 1 h in a hyperbaric chamber in a nitrogen-saturated buffer containing: 130 mM NaCl, 5.4 mM KCl, 0.1323 mM CaCl2, 0.26 mM NaHCO3, 0.8 mM MgCl2, 1.18 mM NaH2PO4, 10 mM sucrose (OGD plus sucrose) and iodoacetate (IAA, 20 or 50 µM). IAA is a glycolytic blocker typically used in OGD experiments to simulate ischemic conditions. After the insult, the cells were incubated under normoxic conditions for an additional 24 h in the presence of glucose but in the absence of IAA. Distinct reagents were added during ischemia to evaluate their neuroprotective activity by assessing cell viability and cell death in the cultures.
The cell status was assessed by measuring the release of lactate dehydrogenase (LDH) from dead cells. LDH was measured spectrophotometrically at 490 nm on a 96-well plate reader using the Cytotox 96 Kit according to the manufacturer's instructions (Promega). The LDH release was defined by the ratio of LDH released to the total LDH present in the cell at the beginning of the treatment.

Data set [2] in a line: Parallel artificial membrane permeability assay (PAMPA), BBB model, passive diffusion. Format: in vitro ADME. The method, then: The PAMPA assay was used to determine the capacity of compounds to cross a blood brain barrier (BBB) model by passive diffusion, measuring the effective permeability of the compounds at an initial concentration of 200 µM. The buffer solution was prepared from a concentrated commercial solution (Pion, Billerica, MA, US) according to the manufacturer's instructions and the pH was adjusted to 7.4 with 0.5 M NaOH. The compound of interest was dissolved in the buffer solution (200 µM), the PAMPA sandwich was separated and the donor well was filled with 195 µL of the compound of interest. The acceptor plate and donor plate were brought together, with the underside of the membrane in contact with the buffer. An 4 µL aliquot of the phospholipid mixture (20 mg/ml) in dodecane was added to the filter of each well, and then 200 µL of buffer solution was added to each acceptor well. The plate was covered and incubated for 4 h at RT in a saturated humidity atmosphere with agitation and with 25 µm of an unstirred water layer in the Gut-Box (Pion). After 4 h, a 150 µL/well sample from the donor plate and a 150 µL/well sample from the acceptor plate were transferred to HPLC vials. Then, 100 µL from acceptor well, 5 µL from the donor well and 5 µL from the t0 samples were injected into an HPLC reverse-phase symmetry C18 column (150 mm×4.6 mm×5 µm, 100 Å; Waters). Transport was confirmed by HPLC mass spectrometry and matrix-assisted laser desorption/ionization time-of-flight (MALDI-TOF) spectrometry to ensure the compound had maintained its integrity. The phospholipid mixture used was a porcine polar brain lipid extract composed of 12.6% phosphatidylcholine (PC), 33.1% phosphatidylethanolamine (PE), 18.5% phosphatidylserine (PS), 4.1% phosphatidylinositol (PI), 0.8% phosphatidic acid and 30.9% of other compounds.
(The PAMPA barrier holds no transporters, so it reflects passive diffusion.)

The test system of data set [3] is rat mixed astrocyte-neuron cultures. The data set can be described thus: NMDA-induced caspase 3 activation in mixed astrocyte-neuron cultures. The format is cell-based. The conditions noted are these: pre- or co-treatment; MTA 250 µM, MK-801 10 µM; 300 µM NMDA. The method, then: as §1
To assay N-methyl–D-aspartate (NMDA) excitotoxicity, primary cultures were seeded in 24-well plates at 15×10^4 cells/well, cultured for 7 days in vitro, and treated for different times with the vehicle alone (dimethyl sulfoxide (DMSO) 1%), NMDA (300 µM), NMDA (300 µM) + MTA (250 µM) or NMDA (300 µM) + MK-801, a NMDA receptor antagonist (10 µM). […] Caspase 3 activity was measured in these lysates one hour after the NMDA addition.
Cortical neurons, or mixed cortical neurons and glia, were seeded in poly-L-lysine-coated 6-well culture plates during 7 days in vitro before start the set of experiments. […] The extracts were then centrifuged at 5,000×g for 10 min at 4°C and the protein content was determined by the BCA protein assay. […]

Data set [4] relates to C57Bl mice treated with MPTP. Description: MPTP mouse model of Parkinson's disease, stereological counting of TH+ neurons. Format: in vivo. The conditions noted are these: MTA 30 mg/kg, MSX-3 10 mg/kg (legend: 9 mg/kg), alone or combined; MPTP 30 mg/kg i.p. 5 days. The procedure:
12-week-old male C57Bl mice from Charles River (Barcelona, Spain) were injected i.p. with 30 mg/kg 1-methyl-4-phenyl-1,2,3,6-tetrahydropyridine (MPTP, Sigma-Aldrich) on five consecutive days. Subsequently, MTA (30 mg/kg) and/or the A2A adenosine receptor (A2AR, 10 mg/kg) antagonist, MSX-3 (Sigma-Aldrich), was administered one day before starting MPTP treatment and 1 h after each MPTP injection (n = 6 in each experimental group). We used mice in the MPTP model because rats are resistant to systemic MPTP administration and thus, the rat MPTP model requires stereotaxic MPTP injection directly into the nigrostriatal fibers. […]
The reference volume was calculated according to Cavalieri principles from images obtained with a 2× objective using a point count array. The cross-sectional area of the nucleus was measured and the reference volume (Vr) for the entire nucleus was estimated using the following equation: [drawing 1] where T is the thickness of the sections, a/p is the area of each point and Pi is the number of points that landed within the area. The region of interest to estimate the area was outlined at low magnification (4×), and the number of labeled neurons was calculated under 100× magnification (with oil immersion) using randomized meander sampling and the optical dissector methods. […]

In data set [5] the test system is co-culture of bovine-brain endothelial cells (BBECs) and newborn rat astrocytes. Description: In vitro cell model of transport across the BBB. Format: in vitro ADME. The procedure: A in vitro cell model of BBB permeability was established using a co-culture of bovine-brain endothelial cells (BBECs) and newborn rat astrocytes. The cells were first cultured in 24-well (Transwell^R) permeable supports with a surface area of 0.33 cm^2 and a pore size of 0.4 µm (Corning), the upper surface of which was coated with collagen type IV and fibronectin. The inserts were then placed upside down in a large petri dish, and 40 µL of a suspension (containing approximately 45,000 astrocytes) was placed on the bottom of each filter. The petri dish was incubated at 37°C for 1 h, and 40 µL of fresh DMEM+S was added to the bottom of each filter every 15 min. The inserts were then transferred back to the plate and incubated at 37°C in 5% CO2 for 3 d. Then, 2 h before seeding the BBECs, the medium was replaced by DMEM+S supplemented with 125 µg/mL heparin and 2 h later, the cells were seeded onto the inserts (45,000 cells per filter). The plate was incubated at 37°C in 5% CO2 for 3 more days, after which the medium was replaced by DMEM+S supplemented with cyclic adenosine monophosphate (cAMP) and RO-20-1724, and kept at 37°C in 5% CO2. On day 8 of the co-culture, the transendothelial electrical resistance (TEER) was measured to determine whether the system was ready for transport studies. To validate the maturity of the model, permeability assays with lucifer yellow (LY) were performed in parallel as a marker of the integrity of the in vitro barrier. During the permeability assay, the samples were co-incubated with LY (20 µM) to assess the integrity of the cellular monolayer during the assay.

As to `N[C@H](CCCP(=O)(O)O)C(=O)O` [APV, (2R)-amino-5-phosphonovaleric acid, reference compound], in data set [1], the “protection against OGD (cell death, LDH release)” value is on record as “similar”.

Turning to `NC(=O)N1c2ccccc2C=Cc2ccccc21` [Carbamazepine], the “% Membrane retention” value in data set [2] (200 µM, pH 7.4, 4 h at RT) is listed as 0.5%. Besides, the Papp at 4 h, 200 µM in data set [2] (200 µM, pH 7.4, 4 h at RT, read-out: Pe x 10^−6) came out at 11.5 ×10⁻⁶ cm/s.

Turning to `C[C@]12N[C@H](Cc3ccccc31)c1ccccc12` [MK-801, reference compound], the “caspase 3 activation induced by NMDA” value in data set [3] is given as “reverted to basal levels”.

With `C#CCn1c(=O)c2c(nc(/C=C/c3cccc(OC)c3)n2C)n(CCCOP(=O)([O-])[O-])c1=O.[Na+].[Na+]` [MSX-3, reference compound], in data set [4], the “neuroprotection: TH+ neurons in the substantia nigra” value is given as “not statistically significant”.

The compound `CC(C)NCC(O)COc1cccc2ccccc12` (stereo not drawn) [Propanolol, propranolol] came in with a Membrane retention in data set [2] of 30%. Also, in data set [2] (200 µM, pH 7.4, 4 h at RT), the “% Membrane retention” value is listed as 30.2% and the “Pe x 10^−6 (cm/s)” value is listed as 10.3 x 10^−6 cm/s.

Consider “Apo E: control compound in the in vitro cell model of BBB”, for which, in data set [5], the “Pe x 10^−6 (cm/s)” value is 2.2 x 10^−6 cm/s and the “effective permeability coefficient (Pe)” value amounted to 2.2 ×10⁻⁶ cm/s.

With “Transferrin: control compound in the in vitro cell model of BBB”, in data set [5], the “Pe x 10^−6 (cm/s)” value is 8.2 x 10^−6 cm/s and the “effective permeability coefficient (Pe)” value was determined as 8.2 ×10⁻⁶ cm/s.
